Test results published in ChEMBL document CHEMBL6153028, “Understanding the synergistic sensitization of natural products and antibiotics: An effective strategy to combat MRSA” (2025).

Assays:
Type in all cases: functional
Staphylococcus aureus [1] = assay: Synergistic antimicrobial activity against methicillin resistant Staphylococcus aureus 43300 assessed as fractional inhibitory concentration index incubated for 24 hrs in presence of Oxacillin by checkerboard assay
Staphylococcus aureus [2] = assay: Synergistic antibacterial activity against methicillin-resistant Staphylococcus aureus assessed as fractional inhibitory concentration index incubated for 24 hrs in presence of vancomycin by checkerboard assay
Staphylococcus aureus [3] = assay: Synergistic antimicrobial activity against methicillin resistant Staphylococcus aureus assessed as fractional inhibitory concentration index incubated for 24 hrs in presence of amikacin by checkerboard assay
Staphylococcus aureus [4] = assay: Synergistic antimicrobial activity against methicillin resistant Staphylococcus aureus assessed as fractional inhibitory concentration index incubated for 24 hrs in presence of Oxacillin by checkerboard assay
Staphylococcus aureus [5] = assay: Synergistic antimicrobial activity against methicillin-resistant Staphylococcus aureus assessed as fractional inhibitory concentration index in presence of gentamicin by checkerboard assay
Staphylococcus aureus [6] = assay: Synergistic antimicrobial activity against methicillin resistant Staphylococcus aureus assessed as fractional inhibitory concentration index incubated for 24 hrs in presence of sulbactam by checkerboard assay
Staphylococcus aureus [7] = assay: Synergistic antimicrobial activity against methicillin resistant Staphylococcus aureus assessed as fractional inhibitory concentration index incubated for 24 hrs in presence of oxytetracycline by checkerboard assay
Staphylococcus aureus [8] = assay: Synergistic antimicrobial activity against methicillin-resistant Staphylococcus aureus assessed as fractional inhibitory concentration index incubated for 24 hrs in presence of ampicillin by checkerboard assay
Staphylococcus aureus [9] = assay: Synergistic antimicrobial activity against methicillin-resistant Staphylococcus aureus CCARM 3089 assessed as fractional inhibitory concentration index in presence of oxacillin incubated for 24 hrs by checkerboard assay
Staphylococcus aureus [10] = assay: Synergistic antibacterial activity against methicillin resistant Staphylococcus aureus assessed as fractional inhibitory concentration index in presence of norfloxacin; conditions: time 24 hrs
Staphylococcus aureus [11] = assay: Synergistic antimicrobial activity against methicillin resistant Staphylococcus aureus assessed as fractional inhibitory concentration index incubated for 24 hrs in presence of Fosfomycin by checkerboard assay
Staphylococcus aureus [12] = assay: Synergistic antibacterial activity against methicillin resistant Staphylococcus aureus assessed as fractional inhibitory concentration index in presence of oxacillin incubated for 24 hrs by checkerboard assay
Staphylococcus aureus [13] = assay: Synergistic antibacterial activity against methicillin resistant Staphylococcus aureus assessed as fractional inhibitory concentration index in presence of kanamycin incubated for 24 hrs by checkerboard assay
Staphylococcus aureus [14] = assay: Synergistic antimicrobial activity against methicillin resistant Staphylococcus aureus 43300 assessed as fractional inhibitory concentration index incubated for 24 hrs in presence of imipenem by checkerboard assay
Staphylococcus aureus [15] = assay: Synergistic antimicrobial activity against methicillin resistant Staphylococcus aureus 43300 assessed as fractional inhibitory concentration index incubated for 24 hrs in presence of Cefuroxime by checkerboard assay
Staphylococcus aureus [16] = assay: Synergistic antimicrobial activity against methicillin resistant Staphylococcus aureus 43300 assessed as fractional inhibitory concentration index incubated for 24 hrs in presence of cefotaxime by checkerboard assay
Staphylococcus aureus [17] = assay: Synergistic antibacterial activity against methicillin resistant Staphylococcus aureus assessed as fractional inhibitory concentration index in presence of ampicillin
Staphylococcus aureus [18] = assay: Synergistic antibacterial activity against methicillin resistant Staphylococcus aureus assessed as fractional inhibitory concentration index in presence of ciprofloxacin
Staphylococcus aureus [19] = assay: Synergistic antimicrobial activity against methicillin resistant Staphylococcus aureus 43300 assessed as fractional inhibitory concentration index incubated for 24 hrs in presence of Gentamicin by checkerboard assay
Staphylococcus aureus [20] = assay: Synergistic antibacterial activity against methicillin-resistant Staphylococcus aureus assessed as fractional inhibitory concentration index in presence of cefoxitin

## COc1ccc2c(c[n+](C)c3c4cc5c(cc4ccc23)OCO5)c1OC.[Cl-] [CHELERYTHRINE CHLORIDE]
Staphylococcus aureus [1]
  fractional inhibitory concentration index (FICI): 0.5

## O=C/C=C/c1ccccc1 [CINNAMALDEHYDE]
Staphylococcus aureus [2]
  fractional inhibitory concentration index (FICI): 0.25
Staphylococcus aureus [3]
  fractional inhibitory concentration index (FICI): 0.19
Staphylococcus aureus [4]
  fractional inhibitory concentration index (FICI): 0.25
Staphylococcus aureus [5]
  fractional inhibitory concentration index (FICI): 0.37

## C[C@H]1COC2=C1C(=O)C(=O)c1c2ccc2c1CCCC2(C)C [CRYPTOTANSHINONE]
Staphylococcus aureus [2]
  fractional inhibitory concentration index (FICI): 0.37
Staphylococcus aureus [4]
  fractional inhibitory concentration index (FICI): 0.312

## O=C(O[C@@H]1Cc2c(O)cc(O)cc2O[C@@H]1c1cc(O)c(O)c(O)c1)c1cc(O)c(O)c(O)c1 [EPIGALOCATECHIN GALLATE]
Staphylococcus aureus [6]
  fractional inhibitory concentration index (FICI): 0.19
Staphylococcus aureus [7]
  fractional inhibitory concentration index (FICI): 0.288
Staphylococcus aureus [8]
  fractional inhibitory concentration index (FICI): 0.19

## O=C(O[C@@H]1O[C@@H]2COC(=O)c3cc(O)c(O)c(O)c3-c3c(cc(O)c(O)c3O)C(=O)O[C@H]2[C@H](OC(=O)c2cc(O)c(O)c(O)c2)[C@H]1OC(=O)c1cc(O)c(O)c(O)c1)c1cc(O)c(O)c(O)c1 [EUGENIIN]
Staphylococcus aureus [9]
  fractional inhibitory concentration index (FICI): 0.395

## O=c1c(-c2ccc(O)cc2)coc2cc(O)cc(O)c12 [GENISTEIN]
Staphylococcus aureus [10]
  fractional inhibitory concentration index (FICI): 0.38

## C=CCc1ccc(O)c(-c2ccc(O)c(CC=C)c2)c1 [HONOKIOL]
Staphylococcus aureus [3]
  fractional inhibitory concentration index (FICI): <0.5
Staphylococcus aureus [11]
  fractional inhibitory concentration index (FICI): <0.5

## CC(C)=CCc1c(-c2ccc(O)cc2O)oc2c(CC=C(C)C)c(O)cc(O)c2c1=O [KUWANON C]
Staphylococcus aureus [12]
  fractional inhibitory concentration index (FICI): 0.5
Staphylococcus aureus [13]
  fractional inhibitory concentration index (FICI): 0.375

## CC(C)=CCC/C(C)=C/Cc1cc(C2CC(=O)c3c(O)cc(O)cc3O2)c(O)cc1O (centres undefined) [KUWANON E]
Staphylococcus aureus [13]
  fractional inhibitory concentration index (FICI): 0.5

## C=CCc1ccc(O)c(-c2cc(CC=C)ccc2O)c1 [MAGNOLOL]
Staphylococcus aureus [11]
  fractional inhibitory concentration index (FICI): <0.5

## CC(C)=CCc1c(-c2ccc(O)cc2O)oc2c3c(cc(O)c2c1=O)OC(C)(C)C=C3 [MORUSIN]
Staphylococcus aureus [12]
  fractional inhibitory concentration index (FICI): 0.375
Staphylococcus aureus [13]
  fractional inhibitory concentration index (FICI): 0.5

## O=C1C=CC(=O)c2ccccc21 [NAPHTHOQUINONE]
Staphylococcus aureus [14]
  fractional inhibitory concentration index (FICI): 0.5
Staphylococcus aureus [15]
  fractional inhibitory concentration index (FICI): 0.06
Staphylococcus aureus [16]
  fractional inhibitory concentration index (FICI): 0.062

## CC1(C)CC[C@]2(C(=O)O)CC[C@]3(C)C(=CC[C@@H]4[C@@]5(C)CC[C@H](O)C(C)(C)[C@@H]5CC[C@]43C)[C@@H]2C1 [OLEANOLIC_ACID]
Staphylococcus aureus [17]
  fractional inhibitory concentration index (FICI): <0.5
Staphylococcus aureus [4]
  fractional inhibitory concentration index (FICI): <0.5

## Oc1cc(O)cc(/C=C/c2ccc(O)cc2O)c1 [OXYRESVERATROL]
Staphylococcus aureus [2]
  fractional inhibitory concentration index (FICI): 0.37
Staphylococcus aureus [18]
  fractional inhibitory concentration index (FICI): 0.37

## O=C(/C=C/C=C/c1ccc2c(c1)OCO2)N1CCCCC1 [PIPERINE]
Staphylococcus aureus [19]
  fractional inhibitory concentration index (FICI): 0.5

## O=C(O)c1cc(O)c2c(c1)C(=O)c1cccc(O)c1C2=O [RHEIN]
Staphylococcus aureus [4]
  fractional inhibitory concentration index (FICI): 0.37

## CC(C)=CC[C@@H](O)C1=CC(=O)c2c(O)ccc(O)c2C1=O [SHIKONIN]
Staphylococcus aureus [3]
  fractional inhibitory concentration index (FICI): 0.37
Staphylococcus aureus [20]
  fractional inhibitory concentration index (FICI): 0.57
Staphylococcus aureus [5]
  fractional inhibitory concentration index (FICI): 0.5

## C[C@H]1[C@H](C)CC[C@]2(C(=O)O)CC[C@]3(C)C(=CC[C@@H]4[C@@]5(C)CC[C@H](O)C(C)(C)[C@@H]5CC[C@]43C)[C@H]12 [URSOLIC ACID]
Staphylococcus aureus [17]
  fractional inhibitory concentration index (FICI): <0.5
Staphylococcus aureus [4]
  fractional inhibitory concentration index (FICI): <0.5
